The text below walks through data of PubChem BioAssay (NCI).

Each structure is given as a SMILES string. Several values for one entry are separate records, joined by “and”; a condition that tells them apart may be missing. Identical values can stand only once.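 48-hour exposure; five concentrations; linearly interpolated endpoints. At the GI50, growth is halved. Definition used: TGI = concentration required for complete inhibition of growth.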

For the experiment, the system named is MDA-MB-468 breast. The experiment in a line: growth of human tumour cells (NCI), 48 h.
In the case of `CCOC(=O)c1ccc2c(c1)c1c(C)c3ccncc3c(C)c1n2C`, the GI50 was 1160 nM and the TGI is 2830 nM. In the same order, the values of `O=C1/C(=C\c2ccc(Br)cc2)CN(C(=O)c2ccccc2F)C/C1=C\c1ccc(Br)cc1` are 1690 nM and 3690 nM. For `CN(C)c1ccc2nc3ccc(=N)cc-3sc2c1`, in that order: 3520 nM and 13800 nM. With `CCN1CCN(c2cc(C)nc(N(CCCNc3ccnc4cc(Cl)ccc34)Cc3cccs3)n2)CC1`, the GI50 is 1980 nM and the TGI came to 5090 nM.

Consider `COc1cccc2c1C(=O)c1c(O)c3c(c(O)c1C2=O)C[C@@](O)(C(=O)CO)C[C@@H]3OC1CC(N)C(O)C(C)O1` (stereo partly specified), for which the GI50 was 59.9 nM and 58.9 nM and 97.1 nM; the TGI was 250 nM and 236 nM and 486 nM. Take `COc1ccc2c(c1)N(CCO)C1=C(C(=O)OC1)C2c1cc(OC)c(OC)c(OC)c1` (stereo unspecified): the GI50 is 12.3 nM and the TGI stood at 40.5 nM. Regarding `COc1cc(Nc2cc(C)nc(N3CCN(c4ccnc5cc(Cl)ccc45)CC3)n2)cc(OC)c1`, the GI50 was 129 nM and the TGI worked out at 3200 nM. As for `CC[C@]12C=CCN3CC[C@]4(C(=C(C(=O)OC)C1)Nc1cc(OC)c(OC(C)=O)cc14)[C@@H]32`, the GI50 was 428 nM and the TGI was found to be 20200 nM. With `COc1ccc(C2=C(c3cn(C)c4ccccc34)C(=O)NC2=O)cc1`, the GI50 was 9840 nM and the TGI was > 25000 nM. With `Cc1cccc(NC(=O)c2sc3nc4c(cc3c2N)CCCC4)c1`, the GI50 was 1750 nM and the TGI is 44100 nM.

As for `C=C(C)[C@@H]1CC[C@]2(CNCCO)CC[C@]3(C)[C@H](CC[C@@H]4[C@@]5(C)CCC(N)[C@@](C)(CO)[C@@H]5CC[C@]43C)[C@@H]12` (stereo partly specified), the GI50 is 1610 nM and the TGI came to 3180 nM.

For the compound `NC(=O)c1cccc(-n2ccc3cc(NC(=O)Nc4ccc(N5CCOCC5)c(C(F)(F)F)c4)ccc32)n1`, the GI50 was 2440 nM and the TGI was determined as 7530 nM. For `CC(C)(O)c1coc(S(=O)(=O)/N=C(\O)Nc2c3c(cc4c2CCC4)CCC3)c1`, the GI50 was > 100000 nM and the TGI was > 100000 nM. On to `Nc1ccc2c(c1)Cc1cc(Cl)c(Cl)cc1-2`, for which the GI50 is 1360 nM and the TGI was determined as 86400 nM. For `CCCCCCCCCCCCC[N+](C)(C)Cc1ccccc1`, the GI50 is 213 nM and the TGI came to 852 nM. `O=C1OCC2=C1C(c1cccc(F)c1)c1cc3c(cc1N2CCO)CCC3` (stereo unspecified): the GI50 is 37.1 nM and the TGI was 1090 nM. On to `O=C(N/N=C/c1ccc(Cl)s1)c1[nH]c2ccc(Br)cc2c1-c1ccccc1`, for which the GI50 is 286 nM and the TGI turned out to be 4200 nM. For `COC(=O)c1c2c(c[n+]([O-])c1C)C(=O)C=C(NCc1ccccc1)C2=O`, in that order: 138 nM and 371 nM. Turning to `COc1cc(/C=C/C(=O)c2cc(OC)c(OC)c(OC)c2)ccc1Oc1nc2c(c(=O)n(C)c(=O)n2C)n1C`, the GI50 is 1920 nM and the TGI was found to be 3730 nM. In the same order, the values of `CCOC(=O)c1cc(C(=O)c2ccc(Cl)cc2)n2ccc(-c3cc[n+](CC(=O)c4ccc(OC)cc4)cc3)cc12` are 1840 nM and 3750 nM. As to `COc1c(OCCCN2CCOCC2)ccc2c3n(c(=NC(=O)c4cnc(N)nc4)nc12)CCN3`, the GI50 is 21.2 nM and 27.9 nM and 38.9 nM; the TGI is 229 nM [middle of 4 runs]. Consider `COc1cc(C(=O)/C=C/c2c(-c3cccs3)nc3sc(C)cn23)cc(OC)c1OC`, for which the GI50 was 2230 nM and the TGI was 8450 nM. In the same order, the values of `COc1cc2c3c(n(CCCN4CCCCC4)c(=O)c2cc1OC)-c1cc2c(cc1C3=O)OCO2` are 1490 nM and 2860 nM.

Take `CC(C)(C)c1[nH]nc2c1C(c1cc3ccccc3[nH]c1=O)Nc1cc(C(=O)Nc3ccc(Cl)cc3)ccc1N2` (stereo unspecified): the GI50 is 1360 nM and the TGI stood at 3080 nM. For `CC1(C)CCC(S(=O)(=O)c2ccc3c(c2)/C(=N\O)c2cc(S(=O)(=O)N4CCN(c5ccc(F)cc5O)CC4)ccc2-3)CC1`, the GI50 is 37.1 nM and the TGI stood at 134 nM. On to `CC(C)=CC(=O)OCC(=O)O[C@@H]1C[C@]2(C(C)C)O[C@@]1(C)[C@@H]1CC[C@@H](C)[C@H]1[C@@H]2OC(=O)/C=C/c1ccccc1`, for which the GI50 was 11400 nM and the TGI is > 82700 nM. For `Cc1cc(C)c(CNC(=O)c2cc(-c3ccc(CN4CCOCC4)cc3)cc3c2cnn3C2CCCC2)c(=O)[nH]1`, the GI50 is 13900 nM and the TGI came out at 36200 nM. Consider `Cn1cc(C2=C(Sc3ccccc3)C(=O)NC2=O)c2ccccc21`, for which the GI50 is 4940 nM and the TGI was 10400 nM. As for `Cc1c(NC(=O)c2cc(C(N)=O)nc3cc(F)ccc23)c(C(F)(F)F)nn1Cc1ccc(C#N)cc1`, the GI50 was 6580 nM and the TGI is > 71900 nM.

On to `CCN(CC)c1ccc(N=O)cc1`, for which the GI50 is 1720 nM and the TGI came out at 4390 nM.

As for `CCOC(=O)c1c(NCC(=O)Nc2cccc([N+](=O)[O-])c2)sc(C(C)=O)c1C`, the GI50 was 1850 nM and the TGI was found to be 4530 nM.

As to `Cc1ncn(-c2ccc(/C=N/Nc3ccnc4cc(Cl)ccc34)cc2)c1C`, the GI50 is 1480 nM and the TGI amounted to 3000 nM.

Regarding `CC(=O)OCC1OC(OC2=C(CC=C(C)C)C(=O)c3ccccc3C2=O)C(OC(C)=O)C(OC(C)=O)C1OC(C)=O` (stereo unspecified), the GI50 was 1580 nM and the TGI was 3680 nM. In the case of `COc1ccc2c(CCC(c3ccccc3)c3ccccc3)c3[n+](cc2c1OC)CCc1cc2c(cc1-3)OCO2`, the TGI came to 228 nM. Regarding `COc1cc(C2c3cc4c(cc3OC(N3CCCCC3)C2C)OCO4)cc(OC)c1OC` (stereo unspecified), the GI50 is 3660 nM and the TGI was determined as 30300 nM. Regarding `CCCCCCCCCCCCCCCCCCOP(=O)([O-])OC1CC[N+](C)(C)CC1`, the GI50 was 3740 nM and the TGI is > 10000 nM. Regarding `CC#Cc1nc2ccccc2c(=O)[nH]1`, the GI50 is 2360 nM and the TGI was determined as 6040 nM. As for `O=C1NC(=NCCc2cccs2)S/C1=C\c1ccc2ncccc2c1`, the GI50 was 5530 nM and the TGI was > 25000 nM. For `Nc1nc2c(c3cnccc13)C(c1cccc(Br)c1)Cc1cnccc1-2` (stereo unspecified), in that order: 257 nM and 808 nM.

For `CC1=C(SCCC(=O)OCC(=O)NCCC[Te]c2ccccc2)C(=O)c2ccccc2C1=O`, the GI50 was 1810 nM and the TGI came out at 3610 nM. As to `c1cc(N2CCCC2)c2nc(-c3[nH]ncc3Nc3ncnc4[nH]ccc34)[nH]c2c1`, the GI50 was 66.1 nM and the TGI turned out to be 265 nM.
